Patent publication US5256824A, “Substituted-amine compound and a process for the preparation thereof” (Fujisawa Pharmaceutical Co., Ltd., priority 1990, dated 1993)

Assays:
[1] = test system: Urinary Bladder Contractions Induced by Water Filling; assay: Inhibition of Urinary Bladder Contractions Induced by Water Filling in Rats; format: in vivo, Male Sprague-Dawly rats; conditions: Rattus norvegicus; intravenous, anesthetized rats (urethane), hyperactive bladder by water filling
Excerpt: Test on Inhibition of Urinary Bladder Contractions Induced by Water Filling in Rats
Male Sprague-Dawly rats, weighing 240-450 g, were anesthetized with urethane 1.0 g/kg s.c. The bladder was exposed through a midline incision in the abdomen for the recording of pressure within the bladder as follows; a balloon attached to one end of a stainless steel tube (O.D., 1.2 mm, 5 cm in length) was inserted into the bladder through a small incision in the bladder dome. The other end of the tube was connected to a pressure-transducer. The ureters were ligated and cut, and the proximal cut end was cannulated with polyethylene tubing and the urine was led outside.
Hyperactive urinary bladder (hyperactive contractions of the detrusor muscle) was induced by water filling of the bladder. Therefore, the balloon in the bladder was filled with water of a volume which caused a resting pressure of about 10 mmHg. Systemic blood pressure and heart rate were monitored from the common carotid artery.
When the contractile responses to water filling became constant, test compounds were administered intravenously.

[2] = test system: Na channel; assay: Na channel blocking activity (local anesthetic effect on the corneal blink reflex); format: in vivo, Male Japanese white rabbits; conditions: 1.0% solution in saline, 50 μl drops to one eye
Method: Test on Na channel blocking activity
Male Japanese white rabbits weighing 2.0-3.0 kg were to evaluate the local anesthetic effect of test compound on the corneal blink reflex. Corneal reflexes were elicited by pressing a flexible monofilament (rabbit whisker) against the cornea. 1.0% Test compound solution in saline was applied to one eye (50 μl drops) and the contralateral eye received as a control. Corneal blink responses were scored at 5, and 15 minutes after test compound application.
Local anesthetic activities were expressed as an inhibition percent of blink responses.

Structure (SMILES) | ED30 [1] [mg/kg] | Inhibition % of blink responses ([2]; 5 minutes after application) [%] | Inhibition % of blink responses ([2]; 15 minutes after application) [%]
CC(C)(C)NC1C=CC(c2ccccc2)(c2ccccc2)C1.CS(=O)(=O)O (single isomer, unassigned; (-)) [(-)-N-t-butyl-4,4-diphenyl-2-cyclopentenylamine methanesulfonate] | 0.18 |  | 
CC(C)(C)NC1C=CC(c2ccccc2)(c2ccccc2)C1.Cl (single isomer, unassigned; (-)) [(-)-N-t-butyl-4,4-diphenyl-2-cyclopentenylamine hydrochloride] |  | 100 | 100
